Assay results: ChEMBL document CHEMBL2163299, “Cytotoxic effects of combination of oxidosqualene cyclase inhibitors with atorvastatin in human cancer cells” (J Med Chem, 2012)
Calls of active or inactive are those of the source. No cut-off for these calls is given here.

Assays:
[1] = Cytotoxicity against human LN18 cells assessed as reduction in cell survival after 72 hrs by MTT assay; assay type: functional, cell-based; details: LN-18, 72 h
KB = experiment: Cytotoxicity against human KB cells after 72 hrs by MTT assay; assay type: functional, cell-based
OVCAR = experiment: Cytotoxicity against human OVCAR cells after 72 hrs by MTT assay; assay type: functional, cell-based
Lanosterol synthase = molecular target: T1, Lanosterol synthase (Homo sapiens, UniProt P48449); experiment: Inhibition of human liver microsome 2,3-OSC after 1 hr by Silica gel plate phosphor imaging
T1 sequence (P48449 whole entry): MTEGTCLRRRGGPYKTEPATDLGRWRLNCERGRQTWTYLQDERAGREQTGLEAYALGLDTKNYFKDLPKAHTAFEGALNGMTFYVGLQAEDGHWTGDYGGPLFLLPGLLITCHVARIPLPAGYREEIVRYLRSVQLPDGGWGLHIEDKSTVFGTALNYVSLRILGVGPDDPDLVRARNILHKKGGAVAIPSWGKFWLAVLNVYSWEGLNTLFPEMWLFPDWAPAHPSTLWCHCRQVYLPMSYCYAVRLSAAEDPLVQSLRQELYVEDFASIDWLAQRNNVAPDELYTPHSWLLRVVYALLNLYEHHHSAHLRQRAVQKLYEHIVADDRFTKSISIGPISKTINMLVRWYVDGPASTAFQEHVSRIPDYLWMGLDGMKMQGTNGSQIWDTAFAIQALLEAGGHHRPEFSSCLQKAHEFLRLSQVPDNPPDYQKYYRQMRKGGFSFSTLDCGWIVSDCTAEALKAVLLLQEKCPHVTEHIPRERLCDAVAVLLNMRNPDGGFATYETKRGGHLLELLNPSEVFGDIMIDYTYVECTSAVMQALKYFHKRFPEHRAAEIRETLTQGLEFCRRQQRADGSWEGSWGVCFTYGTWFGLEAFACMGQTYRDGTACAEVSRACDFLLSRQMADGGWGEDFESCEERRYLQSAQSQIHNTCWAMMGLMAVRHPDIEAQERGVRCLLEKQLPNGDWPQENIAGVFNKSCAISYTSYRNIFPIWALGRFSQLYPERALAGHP

[2] = Cytotoxicity against human Me300 cells after 72 hrs by MTT assay; assay type: functional, cell-based; details: Me300, 72 h
LN-229 = experiment: Inhibition of DNA synthesis in human LN229 cells assessed as inhibition of tritiated thymidine incorporation at 1 to 3 uM after 24 hrs by beta counting; assay type: functional, cell-based
in vitro = details: pampa, pH 6.5
Description: Apparent permeability of compound at pH 6.5 by PAMPA

Caco-2 = experiment: cells; details: Homo sapiens, Caco-2, 72 h
Description: Cytotoxicity against human Caco2 cells after 72 hrs by MTT assay

LNCaP = experiment: Cytotoxicity against human LNCAP cells after 72 hrs by MTT assay; assay type: functional, cell-based
[3] = Chemical stability of compound at pH 4.0 after 24 hrs; assay type: physicochemical; details: buffer, pH 4, 24 h
HeLa = experiment: cells; details: Homo sapiens, 72 h
Description: Cytotoxicity against human HeLa cells after 72 hrs by MTT assay

[4] = Cytotoxicity against human LNZ308 cells after 72 hrs by MTT assay; assay type: functional, cell-based; details: LNZ308, 72 h
MCF7 = experiment: cells; details: Homo sapiens, MCF7, 72 h
Description: Cytotoxicity against human MCF7 cells after 72 hrs by MTT assay

A549 = experiment: Cytotoxicity against human A549 cells after 72 hrs by MTT assay; assay type: functional, cell-based; details: A549, 72 h
physchem = details: 1-octanol/TAPSO buffer, pH 7.4
Description: 1-Octanol-TAPSO buffer distribution coefficient, log D of the compound at pH 7.4 by shake-flask method

[5] = Cytotoxicity against human LN229 cells assessed as reduction in cell survival after 72 hrs by MTT assay; assay type: functional, cell-based; details: LN-229, 72 h
cells = details: Homo sapiens, HCEC, 72 h
Description: Cytotoxicity against human HCEC cells assessed as reduction in cell survival after 72 hrs by MTT assay

[6] = Chemical stability of compound at pH 7.4 after 24 hrs; assay type: physicochemical; details: buffer, pH 7.4, 24 h
LN-18 = experiment: Inhibition of DNA synthesis in human LN18 cells assessed as inhibition of tritiated thymidine incorporation at 1 to 3 uM after 24 hrs by beta counting; assay type: functional, cell-based
[7] = pampa, pH 6.5
Description: Permeability of compound at pH 6.5 assessed as compound binding to lipid membrane by PAMPA

Row | Structure (SMILES) | IC50 [1] [µM] | IC50 (KB) [µM] | IC50 (OVCAR) [µM] | IC50 (Lanosterol synthase) [µM] | IC50 [2] [µM] | inhibition (LN-229) | Papp (in vitro) [×10⁻⁶ cm/s] | IC50 (Caco-2) [µM] | IC50 (LNCaP) [µM] | Stability [3] | IC50 (HeLa) [µM] | IC50 [4] [µM] | IC50 (MCF7) [µM] | IC50 (A549) [µM] | logD (physchem) | IC50 [5] [µM] | IC50 (cells) [µM] | Stability [6] | inhibition (LN-18) | permeability [7] [%]
1 | CCN(CCO)C[C@H]1CC[C@H](CCN(C)C(=O)Oc2ccc(C(F)(F)F)cc2)CC1.O=C(O)CC(O)(CC(=O)O)C(=O)O | 18.9 | 10 | > 30 | 0.0127 | > 30 | Active | 5.11 | 10 | > 30 | Stable | 10 | 23.2 | > 30 | 22.7 | 2.53 | > 30 | > 30 | Stable | Active | 5
2 | CCCN(C)CCCC#C[C@H]1CC[C@H](N(C)C(=O)Oc2ccc(Cl)cc2)CC1.O=C(O)/C=C/C(=O)O | 28 | 4.53 | > 30 | 0.0078 | 18.9 | Active | 0.81 | 6.75 | 18.7 | Stable | 6.82 | 12.6 | > 30 | 8.41 | 3.28 | > 30 | 26.3 | Stable | Active | 0
3 | C=CCN(C)CCCCC[C@H]1CC[C@H](N(C)C(=O)Oc2ccc(C(F)(F)F)cc2)CC1.O=C(O)CC(O)(CC(=O)O)C(=O)O | 2.8 | 1.02 | 12.9 | 0.005 | 16 | Active | 13 | 6.3 | 4.62 | Stable | 1.06 | 2.1 | 20.7 | 6.93 | 3.48 | 8.3 | 5.1 | Stable | Active | 25
4 | CN(CC[C@H]1CC[C@H](C(=O)N2CCC(O)CC2)CC1)C(=O)Oc1ccc(Cl)cc1 | > 30 | 7.58 | > 30 | 0.0287 | 25 | Active | 5.05 | > 30 | 5.55 | Stable | 21.8 | > 30 | > 30 | > 30 | 2.93 | > 30 | > 30 | Stable | Active | 2
5 | CN(CCO)CCCCC[C@H]1CC[C@H](N(C)S(=O)(=O)c2ccc(C(F)(F)F)cc2)CC1.O=C(O)/C=C/C(=O)O | > 30 | 4.28 | > 30 | 0.0112 | 20.9 | Active | 1.79 | 2.67 | > 30 | Stable | 4.53 | > 30 | 12.3 | 6.09 | 3.07 | > 30 | 19 | Stable | Active | 50
6 | CCN(CCO)CCCC#C[C@H]1CC[C@H](N(C)C(=O)Oc2ccc(Cl)cc2)CC1.Cl | 13.4 | 5.86 | > 30 | 0.01 | 26.2 | Active | 2.87 | 4.81 | 23.6 | Stable | 8.64 | 15.3 | > 30 | 13.6 | 2.51 | 21.1 | 29.1 | Stable | Active | 10
